# ChEMBL document CHEMBL3393045, “Discovery of thienoimidazole-based HCV NS5A inhibitors. Part 2: non-symmetric inhibitors with potent activity against genotype 1a and 1b” (Bioorg Med Chem Lett, 2015)
# What was measured:
# [1] = Cytotoxicity against human HuhET cells by [3H]thymidine incorporation assay; assay type: cell-based
# [2] = Metabolic stability in human liver microsomes assessed as remaining parent compound level at 5 uM after 30 mins in presence of NADPH and UDPGA; assay type: ADME; settings: read-out: Stability
# [3] = target: Voltage-gated inwardly rectifying potassium channel KCNH2 (Homo sapiens, UniProt Q12809); assay: Inhibition of human ERG by Q-patch assay
# [4] = target: Cytochrome P450 3A4 (Homo sapiens, UniProt P08684); assay: Inhibition of CYP3A4 (unknown origin); assay type: ADME
# [5] = target: Cytochrome P450 2C9 (Homo sapiens, UniProt P11712); assay: Inhibition of CYP2C9 (unknown origin); assay type: ADME
# [6] = system: Rattus norvegicus; assay: (§1) Cmax in Sprague-Dawley rat at 3 mg/kg, po; assay type: ADME, organism-based; set-up: dose 3 mg/kg, route oral; settings: in vivo
# [7] = Metabolic stability in rat liver microsomes assessed as remaining parent compound level at 5 uM after 30 mins in presence of NADPH and UDPGA; assay type: ADME; settings: read-out: Stability
# [8] = target: Cytochrome P450 2D6 (Homo sapiens, UniProt P10635); assay: Inhibition of CYP2D6 (unknown origin); assay type: ADME
# [9] = system: Hepatitis C virus; assay: Antiviral activity against HCV genotype 1a infected in W11.8 cells assessed as decrease in NS5A expression in replicon cell after 4 days by luminescence based ELISA; assay type: functional, Hepacivirus hominis; settings: subtype 1a, W11.8, 96 h
# [10] = system: Hepatitis C virus; assay: Antiviral activity against HCV genotype 1b infected in human Huh-5.2 cells assessed as decrease in HCV replicon RNA replication after 4 days by luciferase assay; assay type: functional, cell-based, Hepacivirus hominis; settings: Huh-5-2, 96 h
# [11] = Half life in Sprague-Dawley rat at 3 mg/kg, po; assay type: ADME, organism-based; set-up: dose 3 mg/kg, route oral; settings: in vivo
# [12] = AUC (0 to 8 hrs) in Sprague-Dawley rat at 3 mg/kg, po; assay type: ADME, organism-based; set-up: time < 8 hr, dose 3 mg/kg, route oral; settings: plasma
# [13] = Volume of distribution at steady state in Sprague-Dawley rat at 3 mg/kg, iv; assay type: ADME, organism-based; set-up: dose 3 mg/kg, route intravenous; settings: in vivo, read-out: Vdss
# [14] = Clearance in Sprague-Dawley rat at 3 mg/kg, iv; assay type: ADME, organism-based; set-up: dose 3 mg/kg, route intravenous; settings: in vivo
# [15] = Oral bioavailability in Sprague-Dawley rat at 3 mg/kg; assay type: ADME, organism-based; settings: in vivo
# [16] = Half life in Sprague-Dawley rat at 3 mg/kg, iv; assay type: ADME, organism-based; set-up: dose 3 mg/kg, route intravenous; settings: in vivo
# [17] = as §1; assay type: ADME, organism-based; set-up: dose 3 mg/kg, route oral; settings: Sprague-Dawley, in vivo
# Cytochrome P450 2C9, sequence (P11712 whole entry): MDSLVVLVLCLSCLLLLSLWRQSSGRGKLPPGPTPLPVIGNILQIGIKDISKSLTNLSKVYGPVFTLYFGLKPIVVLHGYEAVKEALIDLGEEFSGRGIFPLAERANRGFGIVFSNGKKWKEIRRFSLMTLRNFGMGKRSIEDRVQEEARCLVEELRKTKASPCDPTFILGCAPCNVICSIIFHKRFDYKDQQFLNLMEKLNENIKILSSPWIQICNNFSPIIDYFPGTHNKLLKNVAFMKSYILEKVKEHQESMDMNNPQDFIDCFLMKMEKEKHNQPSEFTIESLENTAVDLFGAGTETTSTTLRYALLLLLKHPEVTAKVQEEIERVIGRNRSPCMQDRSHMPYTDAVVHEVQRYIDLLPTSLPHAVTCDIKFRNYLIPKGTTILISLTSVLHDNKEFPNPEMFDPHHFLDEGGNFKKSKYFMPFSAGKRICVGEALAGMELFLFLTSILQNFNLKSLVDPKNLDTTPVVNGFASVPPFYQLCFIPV
# Cytochrome P450 3A4, sequence (P08684 whole entry): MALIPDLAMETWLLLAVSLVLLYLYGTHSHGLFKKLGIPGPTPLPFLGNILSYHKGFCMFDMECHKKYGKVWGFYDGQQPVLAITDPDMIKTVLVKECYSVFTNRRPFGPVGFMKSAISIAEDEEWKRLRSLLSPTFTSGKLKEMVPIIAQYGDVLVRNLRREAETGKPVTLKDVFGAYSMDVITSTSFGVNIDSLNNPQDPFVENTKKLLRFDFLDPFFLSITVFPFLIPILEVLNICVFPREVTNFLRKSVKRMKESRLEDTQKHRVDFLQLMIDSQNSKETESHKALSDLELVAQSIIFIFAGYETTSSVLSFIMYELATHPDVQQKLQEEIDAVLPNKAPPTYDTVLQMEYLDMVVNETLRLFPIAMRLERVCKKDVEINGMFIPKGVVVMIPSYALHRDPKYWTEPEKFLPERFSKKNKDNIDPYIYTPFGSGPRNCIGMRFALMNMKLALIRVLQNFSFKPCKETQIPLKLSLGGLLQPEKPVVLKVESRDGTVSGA
# Cytochrome P450 2D6, sequence (P10635 whole entry): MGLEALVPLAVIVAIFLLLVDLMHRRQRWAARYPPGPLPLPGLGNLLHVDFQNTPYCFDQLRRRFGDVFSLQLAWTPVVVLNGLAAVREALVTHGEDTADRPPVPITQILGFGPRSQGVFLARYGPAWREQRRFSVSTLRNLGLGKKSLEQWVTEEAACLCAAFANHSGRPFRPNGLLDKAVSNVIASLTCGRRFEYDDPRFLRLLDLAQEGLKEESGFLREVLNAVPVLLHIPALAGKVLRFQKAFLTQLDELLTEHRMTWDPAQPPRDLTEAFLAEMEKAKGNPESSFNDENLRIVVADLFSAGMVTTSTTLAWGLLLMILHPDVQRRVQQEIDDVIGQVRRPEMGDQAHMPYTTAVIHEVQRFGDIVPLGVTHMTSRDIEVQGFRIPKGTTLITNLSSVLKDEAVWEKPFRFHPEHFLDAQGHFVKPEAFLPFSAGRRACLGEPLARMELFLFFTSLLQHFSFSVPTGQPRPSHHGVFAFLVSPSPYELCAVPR
# Voltage-gated inwardly rectifying potassium channel KCNH2, sequence (Q12809 whole entry): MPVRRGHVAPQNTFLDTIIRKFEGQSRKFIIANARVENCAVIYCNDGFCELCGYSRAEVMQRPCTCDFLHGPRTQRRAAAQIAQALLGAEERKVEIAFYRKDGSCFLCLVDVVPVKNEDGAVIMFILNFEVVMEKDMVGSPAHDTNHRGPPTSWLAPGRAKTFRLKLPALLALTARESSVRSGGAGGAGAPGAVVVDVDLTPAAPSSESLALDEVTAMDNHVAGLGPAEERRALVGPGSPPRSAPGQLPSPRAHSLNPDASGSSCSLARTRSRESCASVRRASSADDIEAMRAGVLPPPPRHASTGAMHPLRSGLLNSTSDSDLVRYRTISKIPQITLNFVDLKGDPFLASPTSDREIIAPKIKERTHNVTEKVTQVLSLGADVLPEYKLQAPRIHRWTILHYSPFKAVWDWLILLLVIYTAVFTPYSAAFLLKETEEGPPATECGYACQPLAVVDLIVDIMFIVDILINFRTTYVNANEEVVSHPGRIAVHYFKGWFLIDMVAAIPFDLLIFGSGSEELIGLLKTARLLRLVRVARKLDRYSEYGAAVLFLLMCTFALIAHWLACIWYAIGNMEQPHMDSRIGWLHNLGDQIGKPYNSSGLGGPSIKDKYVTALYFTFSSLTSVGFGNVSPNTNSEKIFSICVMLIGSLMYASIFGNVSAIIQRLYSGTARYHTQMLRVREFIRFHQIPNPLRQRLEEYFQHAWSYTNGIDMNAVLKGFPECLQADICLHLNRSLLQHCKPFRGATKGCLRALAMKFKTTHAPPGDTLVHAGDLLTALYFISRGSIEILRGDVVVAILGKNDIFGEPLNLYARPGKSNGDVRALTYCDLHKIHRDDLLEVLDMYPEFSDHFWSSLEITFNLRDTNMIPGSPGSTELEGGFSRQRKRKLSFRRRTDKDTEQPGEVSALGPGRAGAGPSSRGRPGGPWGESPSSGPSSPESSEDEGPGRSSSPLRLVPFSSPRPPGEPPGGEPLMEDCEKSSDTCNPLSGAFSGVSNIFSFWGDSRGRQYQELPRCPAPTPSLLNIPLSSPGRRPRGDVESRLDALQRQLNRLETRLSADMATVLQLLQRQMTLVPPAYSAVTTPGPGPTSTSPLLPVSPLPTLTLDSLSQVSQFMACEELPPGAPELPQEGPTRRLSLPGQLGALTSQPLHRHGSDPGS
structure (smiles),measurement,setting,value
COC(=O)N[C@H](C(=O)N1C[C@@H](C)C[C@H]1c1ncc(-c2ccc(-c3ccc(-c4cc5[nH]c([C@@H]6C[C@H](C)CN6C(=O)[C@@H](NC(=O)OC)C(C)C)nc5s4)cc3)cc2)[nH]1)C(C)C,CC50,[1],> 20000 nM
same,"remaining at 0.5 h, 5 µM",[2],90%
same,IC50,[3],> 40000 nM
same,IC50,[4],> 30000 nM
same,IC50,[5],> 30000 nM
same,Cmax,[6],30 ng/mL
same,"remaining at 0.5 h, 5 µM",[7],100%
same,IC50,[8],> 30000 nM
COC(=O)N[C@H](C(=O)N1C[C@@H](C)C[C@H]1c1nc2cc(-c3ccc(-c4cc5[nH]c([C@@H]6C[C@H](C)CN6C(=O)[C@@H](NC(=O)OC)C(C)C)nc5s4)cc3)ccc2[nH]1)C(C)C,CC50,[1],> 20000 nM
same,EC50,[9],0.6 nM
COC(=O)N[C@H](C(=O)N1CCC[C@H]1c1nc2cc(C#Cc3cc4[nH]c([C@@H]5CCCN5C(=O)[C@@H](NC(=O)OC)C(C)C)nc4s3)ccc2[nH]1)C(C)C,EC50,[9],828 nM
same,EC50,[10],0.215 nM
COC(=O)N[C@H](C(=O)N1C[C@@H](C)C[C@H]1c1nc2cc(C#Cc3cc4[nH]c([C@@H]5C[C@H](C)CN5C(=O)[C@@H](NC(=O)OC)C(C)C)nc4s3)ccc2[nH]1)C(C)C,EC50,[9],39 nM
same,EC50,[10],0.011 nM
COC(=O)N[C@H](C(=O)N1C[C@@H](C)C[C@H]1c1nc2sc(-c3ccc(-c4ccc5c(c4)nc([C@@H]4C[C@H](C)CN4C(=O)[C@@H](NC(=O)OC)C(C)C)n5C)cc3)cc2[nH]1)C(C)C,CC50,[1],> 20000 nM
same,EC50,[9],13 nM
same,EC50,[10],0.019 nM
COC(=O)N[C@H](C(=O)N1C[C@@H](C)C[C@H]1c1cc2cc(-c3ccc(-c4cc5[nH]c([C@@H]6C[C@H](C)CN6C(=O)[C@@H](NC(=O)OC)C(C)C)nc5s4)cc3)ccc2[nH]1)C(C)C,CC50,[1],> 20000 nM
same,EC50,[9],100 nM
same,EC50,[10],0.045 nM
COC(=O)N[C@H](C(=O)N1C[C@@H](C)C[C@H]1c1nc2sc(-c3ccc(-c4ccc5oc([C@@H]6C[C@H](C)CN6C(=O)[C@@H](NC(=O)OC)C(C)C)nc5c4)cc3)cc2[nH]1)C(C)C,CC50,[1],> 20000 nM
same,EC50,[9],18 nM
same,EC50,[10],0.115 nM
COC(=O)N[C@H](C(=O)N1C[C@@H](C)C[C@H]1c1cn2ccc(-c3ccc(-c4cc5[nH]c([C@@H]6C[C@H](C)CN6C(=O)[C@@H](NC(=O)OC)C(C)C)nc5s4)cc3)cc2n1)C(C)C,CC50,[1],15300 nM
same,EC50,[9],0.3 nM
same,EC50,[10],0.041 nM
COC(=O)N[C@H](C(=O)N1C[C@@H](C)C[C@H]1c1ncc(-c2ccc(-c3cc4sc(-c5cc6[nH]c([C@@H]7C[C@H](C)CN7C(=O)[C@@H](NC(=O)OC)C(C)C)nc6s5)cc4s3)cc2)[nH]1)C(C)C,CC50,[1],> 20000 nM
same,EC50,[9],0.053 nM
same,EC50,[10],0.012 nM
COC(=O)N[C@H](C(=O)N1C[C@@H](C)C[C@H]1c1ncc(-c2ccc(-c3ccc(-c4cc5[nH]c([C@@H]6C[C@H](C)CN6C(=O)[C@@H](NC(=O)OC)C(C)C)nc5s4)s3)cc2)[nH]1)C(C)C,half-life,[11],9.8 h
same,AUC(0-t) at 8 h,[12],440 ng·h/mL
same,CC50,[1],13300 nM
same,Vd,[13],3.8 L/kg
same,clearance,[14],6.9 mL/min/kg
same,bioavailability,[15],11%
same,EC50,[9],0.017 nM
same,"remaining at 0.5 h, 5 µM",[2],100%
same,IC50,[3],25100 nM
same,EC50,[10],0.004 nM
same,half-life,[16],6.7 h
same,IC50,[4],> 30000 nM
same,IC50,[5],21000 nM
same,Cmax,[17],10 ng/mL
same,"remaining at 0.5 h, 5 µM",[7],100%
same,IC50,[8],> 30000 nM
COC(=O)N[C@H](C(=O)N1C[C@@H](C)C[C@H]1c1ncc(-c2ccc(-c3ccc(-c4cc5[nH]c([C@@H]6C[C@H](C)CN6C(=O)[C@@H](NC(=O)OC)C(C)C)nc5s4)c(F)c3)cc2)[nH]1)C(C)C,CC50,[1],> 20000 nM
same,EC50,[9],0.023 nM
same,EC50,[10],0.002 nM
COC(=O)N[C@H](C(=O)N1C[C@@H](C)C[C@H]1c1ncc(-c2ccc(-c3ccc(-c4cc5[nH]c([C@@H]6C[C@H](C)CN6C(=O)[C@@H](NC(=O)OC)C(C)C)nc5s4)cc3F)cc2)[nH]1)C(C)C,CC50,[1],20000 nM
same,EC50,[9],0.023 nM
same,EC50,[10],0.006 nM
COC(=O)N[C@H](C(=O)N1C[C@@H](C)C[C@H]1c1ncc(-c2ccc(-c3ccc(-c4cc5[nH]c([C@@H]6C[C@H](C)CN6C(=O)[C@@H](NC(=O)OC)C(C)C)nc5s4)c(C)c3)cc2)[nH]1)C(C)C,CC50,[1],> 20000 nM
same,EC50,[9],0.037 nM
same,EC50,[10],0.004 nM
COC(=O)N[C@H](C(=O)N1C[C@@H](C)C[C@H]1c1ncc(-c2ccc(-c3ccc(-c4cc5[nH]c([C@@H]6C[C@H](C)CN6C(=O)[C@@H](NC(=O)OC)C(C)C)nc5s4)cc3C)cc2)[nH]1)C(C)C,CC50,[1],19200 nM
same,EC50,[9],0.037 nM
same,EC50,[10],0.002 nM
